Measured values: US20130156753A1 (UNIVERSITY OF ROCHESTER, priority 2010, published 2013)
No end group written: not given here.

How the values were obtained:
HDAC5 nuclear export [1] = assay: PMA-induced GFP-HDAC5 nuclear export in Cos7 cells (fluorescence microscopy); type: cell-based; details: for PMA-induced HDAC5 nuclear export: GFP-HDAC5-WT, pretreatment, then PMA for 3 hours
Protocol: (§1) A, B, Cos7 cells were co-transfected with expression vectors encoding GFP-tagged HDAC5 (GFP-HDAC5) and constitutively active protein kinases as indicated, and then exposed to phorbol-12-myristate-13-acetate (PMA, […]) for 3 hours. […] A-F, The cells were fixed and the subcellular localization of GFP-HDAC5 was visualized by fluorescence microscopy.
C, D, Cos7 cells were transfected with GFP-HDAC5-WT or GFP-HDAC5-S280D and then exposed to PMA for 3 hours. GFP-HDAC5-S280D but not GFP-HDAC5-WT was resistant to PMA-induced nuclear export. *, p<0.05 versus without PMA, n=4. E, F, Cos7 cells were transfected with Flag-HDAC5-WT or Flag-HDAC5-S280A mutant, and then pretreated with forskolin followed with the exposure to PMA. Phosphorylation of HDAC5 in cell lysates was analyzed by immunoblotting with phospho-specific HDAC5 antibodies that recognize the HDAC5 phosphorylated at Ser259 (E) and Ser498 (F). G, H, Cos7 cells were transfected with Flag-HDAC5-WT, Flag-HDAC5-S280A or Flag-HDAC5-S280D, and then pretreated with forskolin, followed with the exposure to PMA. Coimmunoprecipitation of Flag-HDAC5 in cell lysates and then immunoblotting with anti-14-3-3 beta and anti-Flag antibodies in immunoprecipitates were performed. 14-3-3 in total cell lysates (5% of the input) was determined by immunoblotting with anti-14-3-3 antibodies. Representative blots are shown, n=3.
The cells were fixed and GFP-HDAC5 localization was analyzed by fluorescence microscopy.
For analysis of GFP-HDAC5 subcellular localization in NRVMs and Cos7 cells, cells were plated in the presence of adenovirus (multiplicity of infection, 50 to 100) on 35 mm dishes containing DMEM plus 10% FBS as previously described (Vega R B, et al. (2004) Protein kinases C and D mediate agonist-dependent cardiac hypertrophy through nuclear export of histone deacetylase 5. Mol Cell Biol 24(19):8374-8385).
(§2) After 24 hour culture, cells were maintained in serum-free DMEM medium for additional 24 hours, and then exposed to various inducers or inhibitors (for 30 minutes) prior to PE or PMA stimulation for indicated times. The cells were washed with PBS and fixed with 3.7% formaldehyde in PBS. Images were captured at a magnification of ×60, using a fluorescence microscope (Olympus BX51) equipped with a digital camera and Spot software system (RT Color Diagnostic Instruments). For analysis of the myocyte marker, sarcomeric α-actinin antibody and DAPI in neonatal cardiomyocyte, immunocytochemistry were performed according to a standard protocol. For subcellular localization of endogenous HDAC5 in cardiomyocyes, we fixed cells and used the detergent Saponin (Sigma, 84510) to make cells permeable, and then performed immunocytochemistry with anti-HDAC5 antibody (Santa Cruz, sc-11419). For subcellular localization of HDAC5, total around 200 cells were counted in each condition. For cardiomyocyte size, total myocyte surface areas were calculated using NIH Image J software, and expressed as the average of 100 randomly selected cells per condition.

GST-HDAC5-WT (273-286) = tested on: T1, GST-HDAC5-WT (273-286)
T1 sequence: KVAERRSSPLLRRK

HDAC5 nuclear export [2] = assay: PE-induced HDAC5 nuclear export in neonatal rat ventricular cardiomyocytes (NRVMs); type: cell-based
Protocol: as §1
(§3) The cells were fixed and GFP-HDAC5 localization was analyzed by fluorescence microscopy. α-actinin was detected by immunofluorescence using an antibody against α-actinin and a fluorescein-conjugated secondary antibody. The nuclei were stained with DAPI.
as §3, with “DAPI. B, PKA expression in cell lysates were determined by Western blot using PKA antibody.” for “DAPI.”
The cells were fixed and endogenous HDAC5 localization was analyzed by fluorescence microscopy. HDAC5 and α-actinin was detected by immunocytochemistry with antibody against HDAC5 and α-actinin.
The cells were fixed and GFP-HDAC5 subcellular localization was analyzed by fluorescence microscopy and stained with an α-actinin antibody and DAPI.
Cos7 cells were grown in Dulbecco's Modified Eagle's Medium (DMEM) supplemented with fetal bovine serum (10%), 1-glutamine and penicillin/streptomycin. Primary cultures of neonatal rat cardiac ventricular myocytes (NRVMs) from 1- to 2-day-old Sprague-Dawley rats (Charles River Laboratories) were prepared. In brief, NRVMs were dispersed from the ventricles by digestion with collagenase type II (Worthington). Cells were cultured in Dulbecco's modified Eagle's medium (DMEM) supplemented with 1,000 mg/L D-glucose, L-glutamine, and 110 mg/L sodium pyruvate (GIBCO), fetal bovine serum (10%), and penicillin/streptomycin at 37° C. in a 5% CO2 humidified atmosphere for 2-3 days. For inducer or inhibitor studies, cells were pretreated with various inducers or inhibitors for 30 min in serum-free medium. Primary cultures of adult rat cardiomyocytes were prepared from 200-250g male Sprague-Dawley rats. Briefly, rats were anesthetized, hearts excised and placed in Krebs buffer and perfused and digested with endotoxin-free collagenase II (Worthington). This protocol typically yielded approximately 4×10^6 cells per heart, with ˜85% surviving, rod-shaped Ca2+-tolerant cells. Myocytes were allowed to attach to 20 μg/ml laminin coated plates in Modified Eagle Medium (MEM) containing 2.5% FBS, 25 mmol/L HEPES, 5 mmol/L taurine, 2 mmol/L carnitine, 2 mmol/L creatinine, 100 IU/ml penicillin, and 100 μg/ml streptomycin for 2 hrs before replacing with serum-free MEM containing 25 mmol/L HEPES, 5 mmol/L taurine, 2 mmol/L carnitine, 2 mmol/L creatinine, 100 IU/ml penicillin, and 100 μg/ml streptomycin.
Adenoviruses encoding Flag-tagged HDAC5 wild-type (WT), GFP-tagged HDAC5-WT, and YFP-tagged HDAC7-WT were generated as described previously (Ha C H, et al. (2008) Protein Kinase D-dependent Phosphorylation and Nuclear Export of Histone Deacetylase 5 Mediates Vascular Endothelial Growth Factor-induced Gene Expression and Angiogenesis. J Biol Chem 283(21):14590-14599; Ha C H et al. (2008) VEGF stimulates HDAC7 phosphorylation and cytoplasmic accumulation modulating matrix metalloproteinase expression and angiogenesis. Arterioscler Thromb Vasc Biol 28(10):1782-1788). Adenovirus expressing GFP-tagged HDAC5-S280A mutant, GFP-tagged HDAC5-S280D mutant and Flag-tagged HDAC5-S280A mutant were generated by using ViraPower Adenoviral Expression System (Invitrogen) according to the manufacturer's protocol. Adenovirus containing β-galactosidase (LacZ) or GFP was used as a control. […]

NRVMs = assay: Cardiomyocyte hypertrophy (cell size, α-actinin immunostaining) in NRVMs; type: cell-based, rat
Description: A-H, Cardiomyocyte size was detected by immunostaining with anti-α-actinin antibody. […] The cells were fixed and analyzed for GFP-HDAC5 localization, α-actinin staining and nuclear DAPI staining *, p<0.05 versus without PE; #, p<0.05 versus with PE alone. I, Schematic model for PKA-dependent regulation of HDAC5 subcellular localization and gene transcription.
Cardiomyocyte protein marker α-actinin was detected by immunofluorescence using antibody against α-actinin and fluorescein-conjugated secondary antibody.
as §2

[3] = tested on: ANF, β-MHC, α-SMA expression; assay: RT-PCR of cardiac fetal gene expression in NRVMs; type: cell-based, rat; details: NRVMs with GFP-HDAC5-WT; PE 24 hours
Protocol: The mRNA was extracted from the cell lysates and then RT-PCR with the primers for ANF, β-MHC, α-SMA, and GADPH (internal control) was performed. *, p<0.05 versus PE+Ad-GFP; #, p<0.05 versus PE+GFP-HDAC5-WT, n=4.
The mRNA was extracted from the cell lysates, and quantitative RT-PCR with the primers for ANF and GADPH (internal control) were performed as described in the Examples. Quantitative data are shown (n=4).
Total RNA was isolated from NRVM using TRIzol (Invitrogen Corp.). Firststrand cDNA was synthesized with the SuperScript Preamplification System (Gibco-BRL). cDNA was amplified by PCR for 30 cycle (Applied Biosystem) as described previously (4, 5). Rat GAPDH served as an internal control. The following oligonucleotide primers were used in this study: rat ANF, sense 5′-[…]-3′ (SEQ ID NO:11) and antisense 5′-[…]-3′(SEQ ID NO:12) rat α-SMA, sense 5′-[…]-3′ (SEQ ID NO:13) and antisense 5′-[…]-3′ (SEQ ID NO:14); rat β-MHC (myosin heavy chain), sense 5′-[…]-3′ (SEQ ID NO:15) and antisense 5′-[…]-3′ (SEQ ID NO:16); rat GAPDH, sense 5′-[…]-3′ (SEQ ID NO:17) and antisense 5′-[…]-3′ (SEQ ID NO:18). Experiments were repeated three times.

HDAC7 nuclear export = assay: PMA-induced YFP-HDAC7 nuclear export in Cos7 cells; type: cell-based
Protocol: Transient transfection of plasmid DNA was performed using lipofectamine 2000 (Invitrogene, Carlsbad, Calif.) and 0.5 μg of the indicated plasmids.

[4] = NRVMs with GFP-HDAC5-WT, PE 24 hours

Sequence of Myc-HDAC5 AA 1-360 (chain, as listed by the source): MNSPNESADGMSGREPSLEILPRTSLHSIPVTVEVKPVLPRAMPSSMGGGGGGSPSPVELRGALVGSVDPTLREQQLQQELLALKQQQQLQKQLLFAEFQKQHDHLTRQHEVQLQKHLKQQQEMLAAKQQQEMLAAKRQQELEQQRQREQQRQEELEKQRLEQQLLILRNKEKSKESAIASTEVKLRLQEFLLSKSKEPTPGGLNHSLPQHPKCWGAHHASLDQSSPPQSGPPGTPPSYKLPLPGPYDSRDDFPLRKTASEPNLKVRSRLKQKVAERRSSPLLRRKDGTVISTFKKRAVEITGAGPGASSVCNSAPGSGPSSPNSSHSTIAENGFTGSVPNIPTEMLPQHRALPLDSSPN

CN(C(=O)CCCOc1ccc2[nH]c(=O)ccc2c1)C1CCCCC1 [cilostamide]
PMA-induced HDAC5 nuclear export (HDAC5 nuclear export [1]): did not block HDAC5 nuclear export

purified catalytic subunit of protein kinase A (PKA-CA, Calbiochem)
in vitro kinase assay, 32P autoradiography (GST-HDAC5-WT (273-286)): recombinant PKA-CA phosphorylated the GST-tagged peptide of HDAC5-WT
in vitro kinase assay, 32P autoradiography (Myc-HDAC5 AA 1-360): the similar phosphorylation by PKA-CA in an in vitro kinase assay (FIG. 14) was also detected

CC(C)NCC(O)c1ccc(O)c(O)c1 (stereo not shown) [isoproterenol]
PMA-induced HDAC5 nuclear export (HDAC5 nuclear export [1]): inhibited HDAC5 nuclear export
PE-stimulated HDAC5 nuclear export (HDAC5 nuclear export [2]; NRVMs, adenoviral GFP-HDAC5, 30 min pretreatment, PE 10 μM 3 hours): markedly inhibited PE-stimulated HDAC5 nuclear export

PKA Inhibitor 14-22 Amide (SGRTGRRNA-NH2; UniProt P61925 14-22, looked up, fragment) [PKI]
effect on the inhibition of HDAC5 nuclear export by forskolin and cAMP (HDAC5 nuclear export [1]; GFP-HDAC5, PKI pretreatment, then forskolin or cAMP, then PMA 3 hours): abolished the inhibition of forskolin and cAMP on HDAC5 nuclear export
effect on the inhibitory effects of cAMP on PE-induced HDAC5 nuclear export (HDAC5 nuclear export [2]; NRVMs, GFP-HDAC5, PKA inhibition, then cAMP, PE 3 hours): abolished the inhibitory effects of cAMP on PE-induced HDAC5 nuclear export

COc1ccc(C2CNC(=O)C2)cc1OC1CCCC1 (stereo not shown) [rolipram]
PMA-induced HDAC5 nuclear export (HDAC5 nuclear export [1]): inhibited HDAC5 nuclear export
PE/Angiotensin II-induced cardiomyocyte hypertrophy (NRVMs; NRVMs, forskolin 10 μM, cAMP 500 μM, Rolipram 10 μM 30 min, PE or Angiotensin II 24 hours): inhibit PE/Angiotensin II-induced cardiomyocyte hypertrophy

CNC[C@H](O)c1cccc(O)c1 [PE, R-(−)-Phenylephrine]
HDAC5 localization (stimulus alone) (HDAC5 nuclear export [2]; [4]): HDAC5 nuclear export
expression of ANF, β-MHC and α-SMA (stimulus alone) [3]: significantly increased expression of ANF, β-MHC and α-SMA
cell size (stimulus alone) (NRVMs; [4]): increased cell size

C=C[C@@]1(C)CC(=O)[C@]2(O)[C@@]3(C)[C@@H](O)CCC(C)(C)[C@@H]3[C@H](O)[C@H](OC(C)=O)[C@@]2(C)O1 [forskolin]
PMA-induced nuclear export of YFP-HDAC7 (WT) (HDAC7 nuclear export): no inhibitory effect

CC(C)Cn1c(=O)n(C)c(=O)c2[nH]cnc21 [IBMX, 3-isobutyl-1-methylxanthine]
PMA-induced HDAC5 nuclear export (HDAC5 nuclear export [1]): inhibited HDAC5 nuclear export

CCCCCC[C@@H]([C@@H](C)O)n1cnc2c(N)ncnc21 (racemic) [EHNA, erythro-9-(2-hydroxy-3-nonyl)adenine]
PMA-induced HDAC5 nuclear export (HDAC5 nuclear export [1]): inhibited HDAC5 nuclear export

CCCC(=O)Nc1nc2c(ncn2[C@@H]2O[C@@H]3COP(=O)(O)O[C@H]3[C@H]2OC(=O)CCC)c(=O)[nH]1 [cGMP, DibutyrylcGMP]
PMA-induced HDAC5 nuclear export (HDAC5 nuclear export [1]): did not block HDAC5 nuclear export
